# Source: PubChem BioAssay (NCI)
#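 At the GI50, growth is halved. TGI marks complete inhibition of growth.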
# Experiments:
# Experiment in all cases: growth of human tumour cells (NCI), 384-well format
# 786-0 renal = system: 786-0 renal
# A498 renal = system: A498 renal
# A549 NSCLC = system: A549 NSCLC
# ACHN renal = system: ACHN renal
# BT-549 breast = system: BT-549 breast
# CAKI-1 renal = system: CAKI-1 renal
# CCRF-CEM leukemia = system: CCRF-CEM leukemia
# COLO 205 colon = system: COLO 205 colon
# DU-145 prostate = system: DU-145 prostate
# HCC-2998 colon = system: HCC-2998 colon
# HCT-116 colon = system: HCT-116 colon
# HCT-15 colon = system: HCT-15 colon
# HL-60(TB) leukemia = system: HL-60(TB) leukemia
# HOP-62 NSCLC = system: HOP-62 NSCLC
# HOP-92 NSCLC = system: HOP-92 NSCLC
# HT29 colon = system: HT29 colon
# IGROV1 ovarian = system: IGROV1 ovarian
# KM12 colon = system: KM12 colon
# LOX IMVI melanoma = system: LOX IMVI melanoma
# M14 melanoma = system: M14 melanoma
# MALME-3M melanoma = system: MALME-3M melanoma
# MCF7 breast = system: MCF7 breast
# MDA-MB-231 breast = system: MDA-MB-231 breast
# MDA-MB-435 melanoma = system: MDA-MB-435 melanoma
# MDA-MB-468 breast = system: MDA-MB-468 breast
# MOLT-4 leukemia = system: MOLT-4 leukemia
# NCI-H226 lung = system: NCI-H226 lung
# NCI-H23 lung = system: NCI-H23 lung
# NCI-H322M lung = system: NCI-H322M lung
# NCI-H460 NSCLC = system: NCI-H460 NSCLC
# NCI-H522 lung = system: NCI-H522 lung
# NCI/ADR-RES ovarian = system: NCI/ADR-RES ovarian
# OVCAR-3 ovarian = system: OVCAR-3 ovarian
# OVCAR-4 ovarian = system: OVCAR-4 ovarian
# OVCAR-5 ovarian = system: OVCAR-5 ovarian
# OVCAR-8 ovarian = system: OVCAR-8 ovarian
# PC-3 prostate = system: PC-3 prostate
# RPMI-8226 leukemia = system: RPMI-8226 leukemia
# RXF 393 renal = system: RXF 393 renal
# SF-268 CNS = system: SF-268 CNS
# SF-295 CNS = system: SF-295 CNS
# SF-539 CNS = system: SF-539 CNS
# SK-MEL-2 melanoma = system: SK-MEL-2 melanoma
# SK-MEL-28 melanoma = system: SK-MEL-28 melanoma
# SK-MEL-5 melanoma = system: SK-MEL-5 melanoma
# SK-OV-3 ovarian = system: SK-OV-3 ovarian
# SN12C renal = system: SN12C renal
# SNB-19 CNS = system: SNB-19 CNS
# SR leukemia = system: SR leukemia
# SW-620 colon = system: SW-620 colon
# T-47D breast = system: T-47D breast
# TK-10 renal = system: TK-10 renal
# U251 glioblastoma = system: U251 glioblastoma
# UACC-257 melanoma = system: UACC-257 melanoma
# UACC-62 melanoma = system: UACC-62 melanoma
# UO-31 renal = system: UO-31 renal
structure (smiles),measurement,setting,value
Cc1ccc(NC(=O)c2ccc(CN3CC[C@H](N(C)C)C3)c(C(F)(F)F)c2)cc1Nc1nccc(-c2cncnc2)n1,GI50,786-0 renal,1890 nM
same,TGI,786-0 renal,3470 nM
same,GI50,A498 renal,2690 nM
same,TGI,A498 renal,6220 nM
same,GI50,A549 NSCLC,3010 nM
same,TGI,A549 NSCLC,10900 nM
same,GI50,ACHN renal,1840 nM
same,TGI,ACHN renal,4100 nM
same,GI50,BT-549 breast,3960 nM
same,TGI,BT-549 breast,10000 nM
same,GI50,CAKI-1 renal,2860 nM
same,TGI,CAKI-1 renal,6720 nM
same,GI50,CCRF-CEM leukemia,1990 nM
same,TGI,CCRF-CEM leukemia,3440 nM
same,GI50,COLO 205 colon,396 nM
same,TGI,COLO 205 colon,1780 nM
same,GI50,DU-145 prostate,6800 nM
same,TGI,DU-145 prostate,18900 nM
same,GI50,HCC-2998 colon,1160 nM
same,TGI,HCC-2998 colon,2640 nM
same,GI50,HCT-116 colon,1380 nM
same,TGI,HCT-116 colon,2740 nM
same,GI50,HCT-15 colon,2490 nM
same,TGI,HCT-15 colon,5660 nM
same,GI50,HL-60(TB) leukemia,433 nM
same,TGI,HL-60(TB) leukemia,1310 nM
same,GI50,HOP-62 NSCLC,2190 nM
same,TGI,HOP-62 NSCLC,6540 nM
same,GI50,HOP-92 NSCLC,1640 nM
same,TGI,HOP-92 NSCLC,3140 nM
same,GI50,HT29 colon,947 nM
same,TGI,HT29 colon,2190 nM
same,GI50,IGROV1 ovarian,3680 nM
same,TGI,IGROV1 ovarian,13900 nM
same,GI50,KM12 colon,2510 nM
same,TGI,KM12 colon,5920 nM
same,GI50,LOX IMVI melanoma,1030 nM
same,TGI,LOX IMVI melanoma,2220 nM
same,GI50,M14 melanoma,233 nM
same,TGI,M14 melanoma,811 nM
same,GI50,MALME-3M melanoma,147 nM
same,TGI,MALME-3M melanoma,436 nM
same,GI50,MCF7 breast,2310 nM
same,TGI,MCF7 breast,7760 nM
same,GI50,MDA-MB-231 breast,1750 nM
same,TGI,MDA-MB-231 breast,3240 nM
same,GI50,MDA-MB-435 melanoma,1050 nM
same,TGI,MDA-MB-435 melanoma,3510 nM
same,GI50,MDA-MB-468 breast,2180 nM
same,TGI,MDA-MB-468 breast,3660 nM
same,GI50,MOLT-4 leukemia,1780 nM
same,TGI,MOLT-4 leukemia,3170 nM
same,GI50,NCI-H226 lung,2090 nM
same,TGI,NCI-H226 lung,5070 nM
same,GI50,NCI-H23 lung,2060 nM
same,TGI,NCI-H23 lung,7780 nM
same,GI50,NCI-H322M lung,3920 nM
same,TGI,NCI-H322M lung,12800 nM
same,GI50,NCI-H460 NSCLC,1670 nM
same,TGI,NCI-H460 NSCLC,3350 nM
same,GI50,NCI-H522 lung,1520 nM
same,TGI,NCI-H522 lung,3400 nM
same,GI50,NCI/ADR-RES ovarian,3880 nM
same,TGI,NCI/ADR-RES ovarian,13300 nM
same,GI50,OVCAR-3 ovarian,2400 nM
same,TGI,OVCAR-3 ovarian,5420 nM
same,GI50,OVCAR-4 ovarian,2430 nM
same,TGI,OVCAR-4 ovarian,6600 nM
same,GI50,OVCAR-5 ovarian,1860 nM
same,TGI,OVCAR-5 ovarian,4570 nM
same,GI50,OVCAR-8 ovarian,2190 nM
same,TGI,OVCAR-8 ovarian,5300 nM
same,GI50,PC-3 prostate,3380 nM
same,TGI,PC-3 prostate,8450 nM
same,GI50,RPMI-8226 leukemia,1340 nM
same,TGI,RPMI-8226 leukemia,2620 nM
same,GI50,RXF 393 renal,1520 nM
same,TGI,RXF 393 renal,3220 nM
same,GI50,SF-268 CNS,2720 nM
same,TGI,SF-268 CNS,6990 nM
same,GI50,SF-295 CNS,1900 nM
same,TGI,SF-295 CNS,3420 nM
same,GI50,SF-539 CNS,1430 nM
same,TGI,SF-539 CNS,2750 nM
same,GI50,SK-MEL-2 melanoma,1200 nM
same,TGI,SK-MEL-2 melanoma,2460 nM
same,GI50,SK-MEL-28 melanoma,304 nM
same,TGI,SK-MEL-28 melanoma,1130 nM
same,GI50,SK-MEL-5 melanoma,674 nM
same,TGI,SK-MEL-5 melanoma,1990 nM
same,GI50,SK-OV-3 ovarian,2090 nM
same,TGI,SK-OV-3 ovarian,4530 nM
same,GI50,SN12C renal,2580 nM
same,TGI,SN12C renal,6550 nM
same,GI50,SNB-19 CNS,4560 nM
same,TGI,SNB-19 CNS,13600 nM
same,GI50,SR leukemia,1820 nM
same,TGI,SR leukemia,3230 nM
same,GI50,SW-620 colon,3080 nM
same,TGI,SW-620 colon,10600 nM
same,GI50,T-47D breast,1530 nM
same,TGI,T-47D breast,3060 nM
same,GI50,TK-10 renal,2200 nM
same,TGI,TK-10 renal,4710 nM
same,GI50,U251 glioblastoma,1950 nM
same,TGI,U251 glioblastoma,3760 nM
same,GI50,UACC-257 melanoma,430 nM
same,TGI,UACC-257 melanoma,1760 nM
same,GI50,UACC-62 melanoma,318 nM
same,TGI,UACC-62 melanoma,1290 nM
same,GI50,UO-31 renal,2000 nM
same,TGI,UO-31 renal,4130 nM
